Like-named read-outs stand apart in the source and are kept apart here.
Tests used:
[1] = test system: central receptor site of the benzodiazepines; assay: Affinity for the central benzodiazepine receptor site, displacement of 3H-flunitrazepam in vitro; type: binding; settings: mice and rats
Procedure: Studies were performed in mice and rats in order to evaluate the respective affinities of CM 6912 and of its metabolites on the central receptor site of the benzodiazepines.

motility of mice = assay: Spontaneous actography; type: in vivo; settings: oral
Procedure: (§1) The products according to the invention were subjected to pharmacological tests in mice in order to determine their activity on the central nervous system. We shall indicate below the various tests to which the products were subjected.
(§2) In all cases the products were administered orally.
1. Spontaneous actography
The animals are placed in individual cages through which pass two beams which strike two photoelectric cells.
During their movements, the animals (mice) intercept the beams and cause a recording on the impulse counters.
The variations in the motility of the treated animals are expressed in percentages relative to comparison animals; the sign-indicates a reduction (in percent) of the motility of the subjects.

[2] = test system: mice pulling themselves up on a horizontal bar; assay: Traction test; type: in vivo; settings: Mus musculus, oral, 50% of mice can no longer pull themselves up
Procedure: as §1, §2
This consists of observing whether the animals (mice) are capable of pulling themselves up on a horizontal bar gripped by the front paws.
The results are expressed as the 50% effective dose (ED50), which is the dose (in mg/kg) for which 50% of the mice can no longer pull themselves up.

equilibration of mice = assay: Rotating rod test: equilibration; type: in vivo; settings: Mus musculus, oral, 50% of mice fall
Procedure: as §1, §2
3. Rotating rod test: equilibration
The results are expressed as the 50% effective dose (ED50) which is the dose (in mg/kg) for which 50% of the mice fall during the test.

[3] = test system: pentylenetetrazol (cardiazol) convulsions in mice; assay: Anti-convulsive activity in relation to cardiazol; type: in vivo; settings: Mus musculus, oral, cardiazol 125 mg/kg intraperitoneally, protects 50% of animals, read-out: Anti-convulsive action Cardiazol ED50
Procedure: as §1, §2
Anti-convulsive activity in relation to cardiazol
When administered intraperitoneally at a dose of 125 mg/kg, pentylenetetrazol (or cardiazol) causes the appearance of lethal convulsions in 100% of the mice treated.
The active products administered orally prior to the cardiazol oppose the appearance of the convulsions and possibly allow the test animals to survive.
The results are expressed as the ED50, that is to say as the dose (in mg/kg) which protects 50% of the animals.

[4] = test system: electric shock convulsions in mice; assay: Anti-convulsive activity in relation to electric shock; type: in vivo; settings: Mus musculus, oral, treated 1 hour beforehand, 12.5 V, 0.5 second, read-out: Anti-convulsive action Electric shock ED50
Procedure: as §1, §2
Anti-convulsive activity in relation to electric shock
An alternating current of 12.5 V is applied for 0.5 second by means of corneal electrodes to batches of 12 mice treated 1 hour beforehand with the product to be studied. The untreated mice subjected to this electric shock undergo a convulsion of the tonic type.

mice [5] = assay: Anxiolytic activity: 4 plate test; type: in vivo; settings: oral, 45 minutes after administration, lowest dose with significant effect
Procedure: as §1, §2
Anxiolytic activity: 4 plate test
The device is a parllelopiped chamber of which the floor consists of 4 metal plates of equal area. The experimenter can create a difference of potential which corresponds to a current of intensity 0.35 mA for a duration of 0.2 second, between each plate. Each time a mouse passes from one plate to the other, it receives an electric shock.
The anxiolytic agents cause an indifference to these electric shock and as a result the treated mice cross from one plate to another more frequently than the comparison mice. 45 minutes after administration of the product to be studied, the mice are placed in the chamber for 1 minute and the number of shocks received is measured and compared with the number of shocks received by the comparison animals. The results are expressed as a percentage increase in the number of shocks received by the treated animals relative to the comparison animals (which amounts to a percentage effect for a given dose), or as a threshold dose (TD) which is the lowest dose which produces a significant effect.

mice [6] = assay: Toxicity; type: in vivo; settings: oral
Procedure: as §1, §2
Finally, for certain products, the LDo in mg/kg (for oral administration) has been provided.

rats = assay: Approach-avoidance conflict procedure in Skinner boxes (dissociation of anxiolytic and sedative activities); type: in vivo, male Wistar rats; settings: intraperitoneal; for ED50: Rattus norvegicus, ip, 0.5 h, 30 minutes before the test
Procedure: Male Wistar rats are trained in Skinner boxes (Campden) in an approach-avoidance conflict procedure (Davidson and Cook, Psychopharmacologia 1969, 15, 159). The session lasts 30 minutes and consists of a multiple VI 30 sec/FR 3 schedule (sequence: 10 minutes VI+2 minutes FR+10 minutes VI+2 minutes FR+6 minutes VI). During the conflict periods, signalled by a light cue every 3d press delivers simultaneously a pellet and an electric shock. […] Lever presses are authomatically recorded by a microcomputer: non punished responses during the VI schedule and punished responses during the FR periods. A representative benzodiazepine of formula (I) above (R3=ethyl, R4=F; Code No. CM 6912) has been injected by intraperitoneal route 30 minutes before the test.

man = assay: Therapeutic evaluation in man; type: in vivo; settings: daily dosage of 2 mg
Procedure: For this purpose, a pharmaceutical composition containing 2 mg of CM 6912 is administered once a day.

[7] = Drug disposition studies after oral administration; type: in vivo, several animal species and man
Text: The originality of the mechanism of action of CM 6912 has been determined by the appearance profile of active metabolites after oral administration.

[8] = oral, several animal species and man
[9] = dose 0.5 mg/kg, minus sign = reduction

| SMILES | displacement of 3H-flunitrazepam in vitro [1] | ED50 [2] [mg/kg] | ED50 (equilibration of mice) [mg/kg] | ED50 [3] [mg/kg] | ED50 [4] [mg/kg] | Anxiolysis 4 plates threshold dose (TD) (mice [5]) | Toxicity LD. (mice [6]) [mg/kg] | other results |
| --- | --- | --- | --- | --- | --- | --- | --- | --- |
| O=C1Nc2ccc(Cl)cc2C(c2ccccc2F)=NC1O (stereo not shown) [3-hydroxy analog] | very potent |  |  |  |  |  |  |  |
| CCOC(=O)C1N=C(c2ccccc2)c2cc(Cl)ccc2NC1=O (stereo not shown) [CM 4279, reference compound] |  | 100 | > 100 | 9 | > 500 | 10 | > 300 | Actography, variation in motility relative to comparison animals (motility of mice; dose 100 mg/kg): none |
| CCOC(=O)C1N=C(c2ccccc2F)c2cc(Cl)ccc2NC1=O (stereo not shown) [CM 6912, 7-chloro-3-ethoxycarbonyl-5-(2-fluorophenyl)-2-oxo-2,3-dihydro-1H-benzodiazepine-1,4] | weak displacers | 10 | 5 | 0.6 | 12 | 1 | > 300 | Actography, variation in motility relative to comparison animals (motility of mice; dose 33 mg/kg, minus sign = reduction): -23%; ED50 (rats; read-out: anxiolytic activity ED50 (increase in punished responding)): 1.66 mg/kg; ED50 (rats; read-out: sedative activity ED50 (decrease in unpunished responding)): 16 mg/kg; dissociation of the anxiolytic and sedative activities (rats): statistically significant; adverse effect in man (man): without adverse effect; anxiolytic properties in man (man): potent anxiolytic properties; biotransformation [7, 8]: biotransformed into the free acid; stability in the gastro-intestinal tract [7, 8]: stable in the gastro-intestinal tract |
| CCOC(=O)C1N=C(c2ccccc2Cl)c2cc(Cl)ccc2NC1=O (stereo not shown) [CM 7101, 7-chloro-3-ethoxycarbonyl-5-(2-chlorophenyl)-2-oxo-2,3-dihydro-1H-benzodiazepine-1,4] |  | 6 | 6 | 0.75 | 12 | 0.5 | > 300 | Actography, variation in motility relative to comparison animals (motility of mice; [9]): -58% |
| COC(=O)C1N=C(c2ccccc2Cl)c2cc(Cl)ccc2NC1=O (stereo not shown) [compound 7442] |  | 5 | 8 | 0.4 | 32 | 0.1 | > 300 | Actography, variation in motility relative to comparison animals (motility of mice; [9]): -57% |
| O=C1CN=C(c2ccccc2F)c2cc(Cl)ccc2N1 [de-carbethoxy analog] | very potent |  |  |  |  |  |  |  |
| O=C(O)C1N=C(c2ccccc2F)c2cc(Cl)ccc2NC1=O (stereo not shown) [free acid] | weak displacers |  |  |  |  |  |  | activity of metabolite ([7]; metabolite of CM 6912): inactive metabolite |

Reference: patent US4587245A, “Method of treating neuropsychic disturbances by benzodiazepine derivatives and composition therefor” (Sanofi, priority 1976, dated 1986)
